Tested on: C57BL/KsJ-db/db mice
Assay: Blood sugar and triglyceride lowering in db/db mice (in vivo test)
Settings: male C57BL/KsJ-db/db mice, 200 mg / kg oral gavage daily for 10 days; for Maximum reduction in RBS level in a 9 days treatment (%): random blood sugar in plasma, glucose oxidase method, relative to vehicle control
Method: Male C57BL/KsJ-db/db mice of 6 weeks age procured from the Jackson Laboratory, USA were used in the experiment. The mice were provided with standard pellets made by National Institute of Nutrition, Hyderabad, India and ad libitum water. The mice of 8 to 14 weeks age, having body weight 40 to 55 grams or more were used for testing.
The random blood sugar (RBS) values were measured by withdrawing blood (20 ul) through orbital sinus, using heparinised capillary, centrifuging the blood to obtain plasma and measuring the glucose level in the plasma by the glucose oxidase method using Stangen glucose-kit. The triglyceride levels in plasma were measured by glycerol 3 PO4 oxidase / peroxidase enzyme method using Stangen kit. Four mice in a group having 300 mg / dl or more of the blood sugar level were used for the test.
The test compounds were suspended in 2.0 % gum acacia and administered to test group at a dose of 200 mg / kg, through oral gavage daily for 10 days. The control group received the vehicle (Gum acacia 2 % 10 ml / kg). The random blood sugar levels and triglyceride levels were measured at diffirent time intervals before and after administration of test compounds. Troglitazone, (200 mg / kg daily dose) was used as a standard compound in the protocol.
The ability of reducing blood sugar level was determined as described below. The mean blood sugar values on zero day before administering the control vehicle (ZC) and treated group (TC) and the means of blood sugar values of the vehicle treated control on 3rd, 6th and 9th day and test compound treated group day control (DC) and day treated (DT).
The blood sugar lowering effect of test compound is calculated according to the following formula : Blood sugar lowering effect (%) = 1 -(DT/TC)/(DC/ZC)X 100 [formula]
The blood triglyceride (TG) lowering activity was calculated as percent reduction on the 9th day as compared to the control animal values.

Structure (SMILES) | Maximum reduction in RBS level in a 9 days treatment (%) | Triglyceride lowering (%) (plasma triglyceride, percent reduction on the 9th day compared to control animals)
Cc1c(C)c2c(c(C)c1O)CCC(C)(COc1ccc(CC3SC(=O)NC3=O)cc1)O2 (stereo not drawn) [Troglitazone, reference compound] | 26% | –
Cc1c(C)c2c(c(C)c1O)CCC(C)(CN(C)CCOc1ccc(C=C3SC(=O)NC3=O)cc1)O2 (stereo not drawn) [Example 12, 5-[4-[2-[N-(6-Hydroxy-2,5,7,8-tetramethylchroman-2-ylmethyl)-N-methylamino]ethoxy]phenylmethylene]thiazolidine-2,4-dione] | 43% | 70%

— patent EP0801063B1, “Thiazolidinedione derivatives having antidiabetic, hypolipidaemic, antihypertensive properties, process for their preparation and pharmaceutical compositions containing them” (Dr. Reddy's Laboratories Ltd., priority 1996, dated 1997)
